Laboratory results from US6184246A, “Inhibition of cytokine production by polymethoxylated flavones” (priority 1999, dated 2001).
Entries after “also recorded” stand apart in the source; their conditions may differ.

Key:
IL-6 = IL-6 production by LPS-stimulated human monocytes (ELISA); assay type: cell-based
Experimental: (§1) Adherent purified human monocytes were cultured in the presence of graded concentrations of heptamethoxyflavone for 30 min. The monocyte cultures were then adjusted to contain 20 ng/mL LPS. After 14 h of culture, the cytokines TNFα, IL-6, IL-8, MIP-1α, and IL-10 were assayed in the culture supernatants and IL-1β was assayed in the cell lysates using specific ELISA assays as described below. Values expressed as the percent of cytokine produced in flavone-free cultures are the means and standard errors determined using monocytes isolated from three independent donors.
(§2) Isolation of human peripheral blood monocytes: Peripheral blood mononuclear cells (PBMCs) were isolated from residual source leukocytes (Bonfils Blood Center, CO) by density gradient centrifugation using Ficoll-Paque Plus (Pharmacia, Sweden). Monocytes were purified further by plastic adherence (see below) or by centrifugal elutriation as described previously (Manthey, C. L., et al., J. Leuk Biol., 64: 409-416 (1998)).
(§3) IL-1β was measured in cell lysates by ELISA.

IL-10 = IL-10 production by LPS-stimulated human monocytes (ELISA); assay type: cell-based
Experimental: as §1, §2, §3

IL-1β mRNA = IL-1β mRNA level by RT-PCR in LPS-stimulated monocytes; assay type: cell-based, human; conditions: data not shown
Experimental: (§4) Analysis of specific mRNA levels by reverse transcriptase-polymerase chain reaction (RT-PCR): Monocytes were purified from PBMC by centrifugal elutriation. Monocytes were resuspended to 5×10^6 /mL in complete medium and 2 mL of cell suspension were dispensed into FALCON 17×100 mm polypropylene culture tubes (Becton Dickinson). Cultures were adjusted to contain graded concentrations of HMF and cultured 30 min at 37° C. and 5% CO2. Cultures were then adjusted to contain 20 ng/mL LPS for an additional 90 min. Culture media was then removed and monocytes were lysed in RNAzol (Teltext Inc., Friendswood, Tex.) and total RNA was isolated according to the manufacturer's instructions. Relative levels of TNFα and IL-1β mRNA were then measured by RT-PCR as previously described (Manthey, C. L., J. Leuk Biol. 1998, 64: 409-416). PCR was carried out in the presence of [α-^32 P]dCTP. Radiolabeled products were resolved by agarose gel electrophoresis and quantified using a PhosphorImager (Molecular Dynamics, Sunnyvale, Calif.). For these reactions, the following primer sets were used:
IL-1β, (5'): GACACATGGGATAACGAGGCT, (3'): ACGCAGGACAGGTACAGATTC.

TNFα = TNFα production by LPS-stimulated human monocytes (ELISA); assay type: cell-based
Experimental: Isolation of human peripheral blood monocytes: Peripheral blood mononuclear cells (PBMCs) were isolated from residual source leukocytes (Bonfils Blood Center, CO) by density gradient centrifugation using Ficoll-Paque Plus (Pharmacia, Sweden).
To measure the impact of the flavones on cytokine production, PBMCs were resuspended to 4×10^6 /mL in complete medium, i.e., Dulbecco's Modified Eagle Medium containing 30% FCS, 2 mM glutamine, 100 U/mL Penicillin-G, and 100 μg/mL streptomycin. […] Nonadherent cells (lymphocytes) were separated from the plastic adherent cells (monocytes) by washing the wells twice with 200 μL of medium. The monocytes were cultured an additional 30 min in 100 μL of complete medium containing graded concentrations of the compound of interest and the cultures were then adjusted to contain […] LPS to stimulate cytokine production. Culture supernatants were harvested 14 h later, and cells were lysed by addition of 50 μL of Dulbecco's phosphate buffered saline containing 1% NP40. Culture supernatants were evaluated for TNFα, IL-1β, IL-6, IL-8, IL-10, and MIP-1α content using specific enzyme-linked immunosorbent assays (ELISA) purchased from R&D Systems. IL-1β was measured in cell lysates by ELISA. Lactate dehydrogenase (LDH) content of cell lysates was measured to determine compound effects on cell viability: To 50 μL of lysate were added 200 μL of 50 mM sodium pyrophosphate buffer (pH 8.9) containing 50 mM lactic acid and 4 mg/mL β-nicotinamide adenine dinucleotide (Sigma); rates of reduction of nicotinamide adenine dinucleotide were measured at room temperature at 340 nm.

MIP-1α = MIP-1α production by LPS-stimulated human monocytes (ELISA); assay type: cell-based
Experimental: as §1, §2, §3

[1] = tested on: type-IV phosphodiesterase semi-purified from U937 cells; test: Phosphodiesterase cAMP SPA enzyme assay; assay type: biochemical; conditions: hydrolysis of cAMP; read-out: concentration inhibiting phosphodiesterase activity 50%
Experimental: PDE semipurified from U937 monocytic cells was evaluated for the ability to catalyze the hydrolysis of cAMP in the presence of graded concentrations of flavone, myricetin, and HMF as described below. The rates are plotted as percent of control-reactions, where no flavonoids were present. Testing flavones as phosphodiesterase inhibitors and inducers of cellular cyclic adenosine monophosphate (cAMP): The Phosphodiesterase cAMP SPA Enzyme Assay (Amersham, Arlington Heights, Ill.) was used to test the ability of flavones to inhibit cAMP hydrolysis catalyzed by phosphodiesterase. The phosphodiesterase used in this study was semi-purified from U937 cells, and was determined to be mostly the type-IV isoform based on sensitivity to selected isoform inhibitors (Trophy, T. J., J. Pharmacol. Experimental Therapeutics, 1195-1205 (1992)).

intracellular cAMP = test: Cellular cAMP in human monocytes (EIA); assay type: cell-based; conditions: 100 μM, 30 min
Experimental: To test flavones for the ability to cause an increase in cellular cAMP, monocytes were purified from PBMC by centrifugal elutriation. Monocytes were resuspended to 5×10^6 /mL in complete medium and 2 mL cell suspension were dispensed into FALCON 17×100 mm polypropylene culture tubes (Becton Dickinson). The cells were precultured 2 h at 37° C. and 5% CO2, and then cultured an additional 30 min following adjusting culture media to contain 100 μM of the flavone of interest or 200 μM IBMX (3-isobutyl-1-methylxanthine). Cells were then collected by centrifugation, lysed in 300 μL of ice cold aqueous solution containing 10 mM HEPES (pH 7.6) and 1% NP40. The lysates were applied to 100 mg columns of Amprep SAX resin (Amersham). The columns were then rinsed with 1 mL of methanol and the cAMP was eluted in 600 μL of methanol containing 0.01 M HCl. The eluates were chilled on dry ice and dried under vacuum. The Amersham Biotrak cAMP EIA assay was used to measure cAMP content of residues resuspended in 400 μL of assay buffer.

IL-1β = IL-1β production by LPS-stimulated human monocytes (ELISA, cell lysates); assay type: cell-based
Experimental: as §1, §2, §3

IL-8 = IL-8 production by LPS-stimulated human monocytes (ELISA); assay type: cell-based
Experimental: as §1, §2, §3

TNFα mRNA = TNFα mRNA level by RT-PCR in LPS-stimulated monocytes; assay type: cell-based, human; conditions: graded concentrations, 20 ng/mL LPS, 90 min, GAPDH internal standard
Experimental: Primary elutriated human monocytes were cultured in the presence of graded concentrations of HMF for 30 min. The monocyte cultures were then adjusted to contain 20 ng/mL LPS. At 90 min of culture, monocytes were harvested by centrifugation, and RNA was isolated from the cell pellet. Relative levels of TNFα and the constitutively expressed glyceraldehyde 3-phosphate dehydrogenase (GAPDH) mRNA were determined by RT-PCR as described below.
as §4, with “Culture media was then removed and monocytes were lysed in RNAzol (Teltext Inc., Friendswood, Tex.) and total RNA was isolated according to the manufacturer's instructions.” left out, “PCR was carried out in the presence of [α-^32 P]dCTP.” left out, “For these reactions, the following primer sets were used:” left out

[2] = cytokine suppression profile, HMF compared against IBMX (Table 2)

COc1ccc(-c2oc3c(OC)c(OC)c(OC)c(OC)c3c(=O)c2OC)cc1OC [HMF, 3,5,6,7,8,3',4'-heptamethoxyflavone]
inhibition of lipopolysaccharide-induced expression of IL-6 (IL-6; 100 μM): no inhibition
activation at 100 µM (IL-6; Homo sapiens, Monocyte, 14 h, 100 μM, read-out: increase of IL-6 expression): 30%
suppression of IL-6 production (IL-6; [2]): neither suppressed
inhibition of IL-10 production (in words) (IL-10; LPS-stimulated human monocytes): potent inhibitor; also recorded: inhibition
IC50 (IL-10; Monocyte, monocytes from three independent human donors, LPS, 14 h, read-out: IC50 for inhibition of IL-10): 12.3 ± 3.5 µM
induction of IL-1β mRNA (IL-1β mRNA): not effected
inhibition of TNFα production (in words) (TNFα; LPS-stimulated human monocytes): potent inhibitor
IC50 (TNFα; Monocyte, human monocytes, 30 min preculture with compound, LPS, 14 h, 30% FCS, read-out: IC50 for inhibition of TNFα production): 5 µM
inhibition of MIP-1α production (in words) (MIP-1α; LPS-stimulated human monocytes): potent inhibitor
IC50 (MIP-1α; Monocyte, monocytes from three independent human donors, LPS, 14 h, read-out: IC50 for inhibition of MIP-1α): 7.3 ± 0.7 µM
IC50 [1]: 2 µM
increase of monocyte cAMP levels over media alone (in words) (intracellular cAMP): at least a doubling
intracellular cAMP level (intracellular cAMP; media alone 2.7±0.9): 5.7±1.8 pmol/10^7 cells
inhibition of lipopolysaccharide-induced expression of IL-1β (IL-1β; 100 μM): no inhibition
suppression of IL-1β production (IL-1β; [2]): neither suppressed
inhibition of lipopolysaccharide-induced expression of IL-8 (IL-8; 100 μM): no inhibition
suppression of IL-8 production (IL-8; [2]): neither suppressed
suppression of lipopolysaccharide-induced TNFα mRNA expression (TNFα mRNA): suppress; also recorded: selectively blocks
